Assay results: patent US20150050210A1 (priority 2012, published 2015)
Like-named read-outs stand apart in the source and are kept apart here.

Legend:
[1] = Rat studies to determine oral bioavailability of bendamustine; details: male, Sprague-Dawley, in vivo; for AUC(0-inf): read-out: mean AUC0-∞
Protocol: Rat studies were carried out with the extrudate to determine the oral bioavailability of bendamustine. For this purpose 3 mg/kg bendamustine was applied parenterally to 3 animals and samples were taken at 0, 0.083, 0.25, 0.5, 1, 2, 4, 8 hours and analyzed with a validated HPLC/MS method. Furthermore extrudates of the invention were applied orally to 9 rats with a bendamustine concentration of 10.8 mg/kg. Samples were taken at 0, 0.25, 0.5, 1, 2, 4, 6, 8 hours and analyzed with a validated HPLC/MS method

[2] = Compatibility studies of bendamustine with excipients (1:1 binary mixtures); type: physicochemical; details: for Total impurities %: open container, one month
Protocol: Compatibility studies of bendamustine with different excipients used in hot melt extrusion process were realised with incubation of 1:1 (w/w) binary mixtures of these excipients with bendamustine at 40° C. 75% RH in an open container for one month.

[3] = mice; cited from earlier work
[4] = Temperature stability studies of bendamustine; type: physicochemical
Protocol: Temperature stability studies of bendamustine were conducted with treatment of bendamustine at given temperatures for 10 minutes.

Cn1c(CCCC(=O)O)nc2cc(N(CCCl)CCCl)ccc21 [bendamustine, 4-[5-[Bis(2-chloroethyl)amino]-1-methylbenzimidazol-2-yl]butanoic acid]
bioavailability ([1]; iv, 3 mg/kg): 100%
AUC(0-inf) ([1]; iv, 3 mg/kg): 675 ng·h/mL
bioavailability ([1]; po, 10 mg/kg): 33%
AUC(0-inf) ([1]; po, 10 mg/kg): 742 ng·h/mL
Total impurities % ([2]; 1:1 (w/w) mixture with Ascorbic acid, 40° C. 75% RH): 0.121%
Total impurities % ([2]; 1:1 (w/w) mixture with Citric acid, 40° C. 75% RH): 0.098%
Total impurities % ([2]; 1:1 (w/w) mixture with Ditert butyl methyl phenol, 40° C. 75% RH): 0.258%
Total impurities % ([2]; 1:1 (w/w) mixture with Eudragit ® EPO, 40° C. 75% RH): 0.154%
Total impurities % ([2]; 1:1 (w/w) mixture with Kollidone VA64, 40° C. 75% RH): 0.091%
Total impurities % ([2]; 1:1 (w/w) mixture with PEG 1000, 40° C. 75% RH): 0.326%
Total impurities % ([2]; 1:1 (w/w) mixture with PEG 2000, 40° C. 75% RH): 0.229%
Total impurities % ([2]; 1:1 (w/w) mixture with Plasdone K12, 40° C. 75% RH): 0.124%
Total impurities % ([2]; 1:1 (w/w) mixture with Soluplus, 40° C. 75% RH): 0.118%
Total impurities % ([2]; 1:1 (w/w) mixture with Vit E acetate, 40° C. 75% RH): 0.101%
Compatibility with excipients ([2]; with large amounts of PEG 2000, PEG 1000 and Diter butyl methyl phenol, 40° C. 75% RH): incompatibility
oral bioavailability [3]: 40%
Assay % ([4]; 70 ° C. for 10 minutes): 101.75%
Total Impurity % ([4]; 70 ° C. for 10 minutes): 0.7%
Assay % ([4]; 100 ° C. for 10 minutes): 99.216%
Total Impurity % ([4]; 100 ° C. for 10 minutes): 0.8%
Assay % ([4]; 120 ° C. for 10 minutes): 97.732%
Total Impurity % ([4]; 120 ° C. for 10 minutes): 1.3%
